The text below walks through data of patent publication US9636345B2, “Benzimidazole derivatives useful TRPM8 channel modulators” (Janssen Pharmaceutica NV, priority 2009, dated 2017).

One test relates to Male Sprague Dawley rats. The experiment in a line: Inhibition of icilin-induced "wet-dog" shakes in rats. The note with it: rat; 10 mg/kg p.o.; 60 min pre-icilin; vehicle 0.5% HPMC. The format is in vivo. As to the method:
Male Sprague Dawley rats ([…], Charles River Labs, n=6-9/treatment) were used to evaluate the ability of test compounds to block icilin-induced “wet-dog” shakes (WDS). The test compound was administered at 10 mg/kg in an appropriate vehicle, such as hydroxypropyl-β-cyclodextrin (HP-β-CD), methocellulose, 10% Solutol, H2O or the like, by the appropriate route (e.g., i.p or p.o), 30-60 min before icilin. Icilin was then administered in PEG-400 or 10% solutol/H2O, at 1.0 or 3.0 mg/kg, i.p. and spontaneous “wet-dog” shakes were counted 10-20 min post-icilin.
A representative compound of the present invention was tested at 10 mg/kg p.o. and 60 min pre-icilin, according to the procedure described above. Results, as listed in Table 8 below, are presented as a percent inhibition of shakes, which was calculated as [1−(test compound WDS count/vehicle WDS count)]×100.

The target of another test is T1, canine TRPM8 (Canis lupus familiaris, UniProt Q1A7N1).
T1 construct: expressed in transfected cells
The experiment in a line: In vitro canine TRPM8 functional assay (icilin-induced intracellular Ca2+ increase, FLIPR/FDSS). The note with it: for inhibition at 0.2 µM / % Inh @ 0.2 μM: 0.2 μM compound, HEK293 canine TRPM8; for % Inh @ 1 μM / inhibition at 1 µM: 1 μM compound, samples diluted from 10 mM stock with 100% DMSO. The class given is cell-based. As to the method:
The functional activity of representative compounds of the formula (I) of the present invention was quantified by measuring changes in intracellular calcium concentration using a Ca^2+-sensitive fluorescent dye. The changes in fluorescent signal were monitored by a fluorescence plate reader, either a FLIPR™ (Molecular Devices) or FDSS (Hamamatsu).
HEK293 cells stably expressing canine TRPM8 were routinely grown as monolayers in Dulbecco's minimum essential medium supplemented with 10% FBS, 2 mM L-glutamine, 100 units/mL penicillin, 100 ug/mL streptomycin and 400 μg/mL G418. Cells were maintained in 5% CO2 at 37° C. At 24 hr prior to assay, cells were seeded in black wall, clear-base poly-D-lysine coated 384-well plates (BD Biosciences, N.J., USA) at a density of 5,000 cells per well in culture medium and grown overnight in 5% CO2 at 37° C. On assay day, growth media was removed, and cells were loaded with Calcium 3 Dye (Molecular Devices) for 35 min at 37° C., under 5% CO2 and then incubated for 25 min at room temperature and atmosphere. Subsequently, cells were tested for agonist-induced increases in intracellular Ca^2+ levels using FLIPR™ or FDSS. Cells were treated with compounds of the formula (I) at varying concentrations and intracellular Ca^2+ was measured for 5 min prior to the addition of icilin to all wells to achieve a final concentration that produces approximately an 80% maximal response.
Basal FI was subtracted prior to normalizing data to percent of maximal response. Curves were generated using the average of quadruplicate wells for each data point using nonlinear regression of either sigmoidal dose response or sigmoidal dose response (variable slope). Finally, the EC50 and IC50 values were calculated with the best-fit curve determined by GraphPad Prism
Test samples were prepared by diluting a 10 mM stock solution of test compound with 100% DMSO prior to addition to assay buffer.

The mark [1] stands for this setting: re-test, samples diluted from 10 mM stock with 100% DMSO before addition to assay buffer, Table 7, read-out: IC50.
Where [2] appears, read: HEK293 cells stably expressing canine TRPM8, icilin at ~80% maximal response, Table 6, read-out: IC50.

SMILES strings stand for the structures. Read-outs that look alike come from different tables or passages of the source.

T1 sequence (Q1A7N1 1-1104): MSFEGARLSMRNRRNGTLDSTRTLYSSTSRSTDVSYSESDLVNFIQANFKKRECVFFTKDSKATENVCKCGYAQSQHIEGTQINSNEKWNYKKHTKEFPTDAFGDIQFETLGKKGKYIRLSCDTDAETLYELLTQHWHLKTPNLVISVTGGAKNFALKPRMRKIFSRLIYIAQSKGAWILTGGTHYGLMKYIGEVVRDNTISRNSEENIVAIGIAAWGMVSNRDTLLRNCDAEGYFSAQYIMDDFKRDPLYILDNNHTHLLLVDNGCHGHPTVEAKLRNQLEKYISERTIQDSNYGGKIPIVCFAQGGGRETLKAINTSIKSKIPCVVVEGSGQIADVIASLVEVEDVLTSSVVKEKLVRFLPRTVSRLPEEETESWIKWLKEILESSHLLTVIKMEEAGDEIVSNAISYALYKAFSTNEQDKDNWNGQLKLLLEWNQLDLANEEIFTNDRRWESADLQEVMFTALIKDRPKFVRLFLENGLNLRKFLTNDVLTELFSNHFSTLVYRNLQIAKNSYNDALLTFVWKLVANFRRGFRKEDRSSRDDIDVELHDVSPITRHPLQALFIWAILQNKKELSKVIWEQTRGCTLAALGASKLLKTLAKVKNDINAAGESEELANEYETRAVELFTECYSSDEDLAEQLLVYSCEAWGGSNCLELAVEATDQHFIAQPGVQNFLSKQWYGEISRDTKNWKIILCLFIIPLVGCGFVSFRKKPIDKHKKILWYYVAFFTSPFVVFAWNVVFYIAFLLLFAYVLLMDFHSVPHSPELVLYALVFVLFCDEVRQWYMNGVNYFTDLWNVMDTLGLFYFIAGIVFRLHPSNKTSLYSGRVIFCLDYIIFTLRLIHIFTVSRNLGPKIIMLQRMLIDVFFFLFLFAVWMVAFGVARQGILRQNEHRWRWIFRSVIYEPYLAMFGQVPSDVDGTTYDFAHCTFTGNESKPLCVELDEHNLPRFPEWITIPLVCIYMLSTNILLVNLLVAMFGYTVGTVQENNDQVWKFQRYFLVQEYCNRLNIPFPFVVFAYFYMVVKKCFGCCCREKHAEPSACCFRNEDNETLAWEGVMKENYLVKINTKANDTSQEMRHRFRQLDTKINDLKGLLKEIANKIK

In the case of `CCn1c(=NS(=O)(=O)c2ccccc2)n(Cc2ccc(C(F)(F)F)c(F)c2)c2cc(C(F)(F)F)ccc21` [Compound 37], the “% Inhibition of icilin-induced "wet-dog" shakes” value in the test on Male Sprague Dawley rats is 0.6%. Also, the midpoint of inhibition on canine TRPM8, the IC50, lay at 5 nM. This compound registered an inhibition at 0.2 µM against canine TRPM8 (Table 6) of 93%.
`O=S(=O)(N=c1n2c3c(cccc3n1-c1ccc(OC(F)(F)F)cc1)OCC2)c1ccccc1` [Compound 64]: the “% Inh @ 0.2 μM” value at canine TRPM8 (Table 6) turned out to be 61%.
On to `Cn1c(=NS(=O)(=O)c2ccc(F)cc2)n(Cc2ccc(C(F)(F)F)cc2)c2ccccc21` [Compound 16], for which the “% Inh @ 0.2 μM” value at canine TRPM8 (Table 6) is 1%. Besides, at canine TRPM8 (re-test, Table 7), the “% Inh @ 1 μM” value is reported as 57%.
Turning to `Cn1c(=NS(=O)(=O)c2ccccc2)n(Cc2cc(C(F)(F)F)ccc2F)c2ccccc21` [Compound 9], at canine TRPM8 (Table 6), the “% Inh @ 0.2 μM” value is given as 39%.
As for `Cn1c(=NS(=O)(=O)c2ccccc2)n(Cc2ccc(OC(F)(F)F)cc2)c2ccccc21` [Compound 2], the “% Inh @ 0.2 μM” value on canine TRPM8 (Table 6) was found to be 34%.
Turning to `CCn1c(=NS(=O)(=O)c2ccccc2)n(Cc2ccc(OC(F)(F)F)cc2)c2cc(F)ccc21` [Compound 36], the “% Inh @ 0.2 μM” value on canine TRPM8 (Table 6) is given as 36%.
As for `Cn1c(=NS(=O)(=O)c2ccc(Cl)cc2)n(Cc2ccc(C(F)(F)F)cc2)c2ccccc21` [Compound 19], the “% Inh @ 0.2 μM” value on canine TRPM8 (Table 6) stood at 13%.
In the case of `Cn1c(=NS(=O)(=O)c2ccc(F)cc2)n(Cc2ccc(C(F)(F)F)c(F)c2)c2ccccc21` [Compound 24], on canine TRPM8 (Table 6), the “% Inh @ 0.2 μM” value is recorded as 3%. The “% Inh @ 1 μM” value on canine TRPM8 (re-test, Table 7) amounted to 85%. In addition, the IC50 on canine TRPM8 (setting [1]) was 379 nM.
Take `CCn1c(=NS(=O)(=O)c2ccccc2)n(Cc2ccc(C(F)(F)F)cc2)c2ccccc21` [Compound 15]: the “% Inh @ 0.2 μM” value on canine TRPM8 (Table 6) amounted to 85%. On canine TRPM8 (setting [2]), the IC50 was 69 nM.
On canine TRPM8 (Table 6), `Cn1c(=NS(=O)(=O)c2ccccc2)n(Cc2ccc(OC(F)F)cc2)c2ccccc21` [Compound 13] showed an inhibition at 0.2 µM of 9%. For the same compound, the inhibition at 1 µM against canine TRPM8 (re-test, Table 7) was 55%. The IC50 on canine TRPM8 (setting [1]) is 764 nM.
`Cn1c(=NS(=O)(=O)c2ccccc2)n(Cc2ccc(C(F)(F)F)c(F)c2)c2ccccc21` [Compound 10]: the “% Inh @ 0.2 μM” value at canine TRPM8 (Table 6) is reported as 22%.
`CCn1/c(=N/S(=O)(=O)c2ccccc2)n(Cc2ccc(C(F)(F)F)cc2)c2cc(F)ccc21` [Compound 39, N-[1-Ethyl-5-fluoro-3-(4-trifluoromethyl-benzyl)-1,3-dihydro-benzimidazol-2-ylidene]-benzenesulfonamide] returned an inhibition at 0.2 µM at canine TRPM8 (Table 6) of 26%.
In the case of `CCn1c(=NS(=O)(=O)c2ccccc2)n(Cc2ccc(OC(F)(F)F)cc2)c2ccccc21` [Compound 14], at canine TRPM8 (Table 6), the “% Inh @ 0.2 μM” value is reported as 75%. Moreover, the IC50 on canine TRPM8 (setting [2]) was 100 nM.
As to `Cn1c(=NS(=O)(=O)c2ccccc2)n(Cc2ccc(F)c(C(F)(F)F)c2)c2ccccc21` [Compound 1], the “% Inh @ 0.2 μM” value at canine TRPM8 (Table 6) stood at 40%.
Regarding `CC(C)n1c(=NS(=O)(=O)c2ccccc2)n(Cc2ccc(C(F)(F)F)c(F)c2)c2cc(C(F)(F)F)ccc21` [Compound 35], the “% Inh @ 0.2 μM” value at canine TRPM8 (Table 6) came to 100%. The IC50 on canine TRPM8 (setting [2]) amounted to 10 nM.
Consider `Cn1c(=NS(=O)(=O)c2ccccc2)n(Cc2ccc(OC(F)(F)F)cc2)c2ccc(C(F)(F)F)cc21` [Compound 58], for which the “% Inh @ 0.2 μM” value on canine TRPM8 (Table 6) turned out to be 25%.
For `Cn1c(=NS(=O)(=O)c2ccccc2)n(Cc2ccc(C(F)(F)F)cc2)c2ccccc21` [Compound 6], the “% Inh @ 0.2 μM” value on canine TRPM8 (Table 6) is reported as 2%. Besides, the “% Inh @ 1 μM” value at canine TRPM8 (re-test, Table 7) is 65%.
Compound `Cn1c(=NS(=O)(=O)c2ccc(Cl)cc2)n(Cc2ccc(OC(F)(F)F)cc2)c2ccccc21` [Compound 20] gave an inhibition at 0.2 µM against canine TRPM8 (Table 6) of 2%. For the same compound, at canine TRPM8 (re-test, Table 7), the inhibition at 1 µM worked out at 74%. The half-inhibitory concentration (IC50) at canine TRPM8 (setting [1]) was 430 nM.
The compound `Cn1c(=NS(=O)(=O)c2ccc(C(F)(F)F)cc2)n(Cc2ccc(C(F)(F)F)cc2)c2ccccc21` [Compound 21] yielded an inhibition at 0.2 µM on canine TRPM8 (Table 6) of 8%. For the same compound, 1 µM produced 59% inhibition on canine TRPM8 (re-test, Table 7). Further, at canine TRPM8 (setting [1]), the IC50 stood at 588 nM.

As a reminder, the IC50 is the concentration that inhibits the measured activity by half. One may read the inhibition as the share of the control response that was lost under treatment. A lower inhibition goes with a response near the control.
